In patent US10023528B2, “Branched 3-phenylpropionic acid derivatives and their use” (BAYER INTELLECTUAL PROPERTY GMBH, priority 2011, dated 2018):

Tests used:
[1] = target: soluble guanylate cyclase (sGC) (Rattus norvegicus (Rat), UniProt P20595); test: Stimulation of sGC enzyme activity (PPi detection, luciferase); format: biochemical; conditions: sGC enzyme in vitro; for EC50: read-out: EC50 (concentration at 50% of maximum efficacy), activating action at the sGC enzyme
Description: Soluble guanylate cyclase (sGC) converts on stimulation GTP into cGMP and pyrophosphate (PPi). PPi is detected with the aid of the assay described below. The signal produced in the assay increases as the reaction progresses and serves as a measure of the sGC enzyme activity under the given stimulation.
To carry out the assay, 29 μl of enzyme solution [0-10 nM soluble guanylate cyclase (prepared according to Hönicka et al, J. Mol. Med. 77, 14-23 (1999)) in 50 mM TEA, 2 mM MgC2, 0.1% BSA (fraction V), 0.005% Brij®, pH 7.5] are initially introduced into a microplate, and 1 μl of the substance to be tested (as a serially diluted solution in DMSO) is added. The mixture is incubated at room temperature for 10 min. Then 20 μl of detection mix [1.2 nM Firefly Luciferase (Photinus pyralis luciferase, Promega), 29 μM dehydroluciferin (prepared according to Bitler & McElroy, Arch. Biochem. Biophys. 72, 358 (1957)), 122 μM luciferin (Promega), 153 μM ATP (Sigma) and 0.4 mM DTT (Sigma) in 50 mM TEA, 2 mM MgCl2, 0.1% BSA (fraction V), 0.005% Brij®, pH 7.5] are added. The enzyme reaction is started by adding 20 μl of substrate solution [1.25 mM guanosine 5′-triphosphate (Sigma) in 50 mM TEA, 2 mM MgC2, 0.1% BSA (fraction V), 0.005% Brij®, pH 7.5] and measured continuously in a luminometer. The extent of the stimulation by the substance to be tested can be determined relative to the signal of the unstimulated reaction.
The activation of haem-free guanylate cyclase is examined by addition of 25 μM of 1H-1,2,4-oxadiazolo[4,3-a]quinoxalin-1-one (ODQ) to the enzyme solution and subsequent incubation for 30 minutes and compared to the stimulation of the native enzyme.

[2] = tested on: recombinant guanylate cyclase reporter cell line (CHO reporter cell); test: Action at a recombinant guanylate cyclase reporter cell line; format: cell-based; conditions: CHO reporter cell in vitro; read-out: MEC (minimum effective concentration), sGC-activating activity in the CHO reporter cell
Description: The cellular action of the compounds according to the invention is determined at a recombinant guanylate cyclase reporter cell line, as described in F. Wunder et al., Anal. Biochem. 339, 104-112 (2005).

[3] = tested on: saphenous artery rings; test: Vasorelaxant effect in vitro (phenylephrine-contracted saphenous artery rings); format: cell-based; conditions: Oryctolagus cuniculus; rabbit saphenous artery rings, phenylephrine-induced contraction
Description: Rabbits are anaesthetized and sacrificed by intravenous injection of thiopental sodium (about 50 mg/kg) and exsanguinated. The saphenous artery is removed and divided into rings 3 mm wide. The rings are mounted singly on in each case a pair of triangular hooks open at the end and made of 0.3 mm-thick special wire (Remanium®). Each ring is placed under an initial tension in 5 ml organ baths with Krebs-Henseleit solution which is at 37° C., is gassed with carbogen and has the following composition: NaCl 119 mM; KCl 4.8 mM; CaCl2×2 H2O 1 mM; MgSO4×7 H2O 1.4 mM; KH2PO4 1.2 mM; NaHCO3 25 mM; glucose 10 mM; bovine serum albumin 0.001%. The force of contraction is detected with Statham UC2 cells, amplified and digitized via A/D converters (DAS-1802 HC, Keithley Instruments, Munich) and recorded in parallel on chart recorders. Contractions are induced by addition of phenylephrine.
After several (generally 4) control cycles, the substance to be investigated is added in each further run in increasing dosage, and the level of the contraction achieved under the influence of the test substance is compared with the level of the contraction reached in the last preceding run. The concentration necessary to reduce the contraction reached in the preceding control by 50% is calculated from this (IC50). The standard application volume is 5 μl. The proportion of DMSO in the bath solution corresponds to 0.1%.

Sequence of soluble guanylate cyclase (sGC) (P20595 whole entry): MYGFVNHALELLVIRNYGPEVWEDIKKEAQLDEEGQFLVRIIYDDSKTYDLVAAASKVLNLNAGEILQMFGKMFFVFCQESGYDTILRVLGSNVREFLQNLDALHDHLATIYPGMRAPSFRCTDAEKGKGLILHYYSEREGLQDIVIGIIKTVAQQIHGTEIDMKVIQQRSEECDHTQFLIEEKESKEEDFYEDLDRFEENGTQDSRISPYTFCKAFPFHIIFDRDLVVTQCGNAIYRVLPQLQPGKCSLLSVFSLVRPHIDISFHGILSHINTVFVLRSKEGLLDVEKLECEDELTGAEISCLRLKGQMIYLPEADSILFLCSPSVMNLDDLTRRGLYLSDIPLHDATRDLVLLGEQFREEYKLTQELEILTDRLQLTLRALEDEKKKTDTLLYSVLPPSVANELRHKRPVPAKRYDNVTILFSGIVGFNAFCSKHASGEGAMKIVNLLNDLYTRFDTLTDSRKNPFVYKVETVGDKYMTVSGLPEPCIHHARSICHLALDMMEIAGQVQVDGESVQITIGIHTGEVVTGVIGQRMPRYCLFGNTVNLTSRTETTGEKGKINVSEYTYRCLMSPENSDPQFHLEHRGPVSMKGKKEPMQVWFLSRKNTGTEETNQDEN
Sequence of soluble guanylate cyclase (sGC) (P19686 whole entry partner): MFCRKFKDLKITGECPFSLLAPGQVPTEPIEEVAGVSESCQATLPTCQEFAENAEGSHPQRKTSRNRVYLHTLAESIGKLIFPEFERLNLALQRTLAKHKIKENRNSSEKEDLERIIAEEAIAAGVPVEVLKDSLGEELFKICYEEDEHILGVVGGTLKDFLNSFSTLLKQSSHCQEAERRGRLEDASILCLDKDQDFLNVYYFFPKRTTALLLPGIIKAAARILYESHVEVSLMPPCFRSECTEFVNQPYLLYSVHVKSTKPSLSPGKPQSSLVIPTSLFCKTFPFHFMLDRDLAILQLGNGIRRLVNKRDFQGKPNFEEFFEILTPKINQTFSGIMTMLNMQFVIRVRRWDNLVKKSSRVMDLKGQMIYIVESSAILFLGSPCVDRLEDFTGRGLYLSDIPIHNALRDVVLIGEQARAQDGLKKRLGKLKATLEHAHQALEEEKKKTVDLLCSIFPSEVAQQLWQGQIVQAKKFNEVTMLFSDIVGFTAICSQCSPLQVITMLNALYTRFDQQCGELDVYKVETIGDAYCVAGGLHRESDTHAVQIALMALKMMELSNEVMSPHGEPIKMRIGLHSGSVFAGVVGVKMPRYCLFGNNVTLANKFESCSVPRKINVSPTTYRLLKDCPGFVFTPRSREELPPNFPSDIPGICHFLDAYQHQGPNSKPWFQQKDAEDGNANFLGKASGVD

Compound | MEC (minimum effective concentration), activating action at the sGC enzyme [1] [nM] | EC50 [1] [µM] | minimal effective concentration [2] [µM] | IC50 [3] [µM]
CC(C)C(C)(CC(=O)O)c1ccc(Cl)c(NC(=O)[C@H](c2ccc(Cl)cc2)[C@@H](C)C(F)(F)F)c1 (single isomer, unassigned) [Example 3] | 1 | 0.037 | 0.0003 | 0.801
CC(C)C(C)(CC(=O)O)c1ccc(Cl)c(NC(=O)[C@H](c2ccc(Cl)cc2)[C@@H](C)C(F)(F)F)c1 (single isomer, unassigned) [Example 4] | 2.4 | 0.11 | 0.003 | 
C[C@H]([C@H](C(=O)Nc1cc(C(C)(CC(=O)O)C2CCC2)ccc1Cl)c1ccc(Cl)cc1)C(F)(F)F (single isomer, unassigned) [Example 5] | 0.3 | 0.0052 | 0.0003 | 
C[C@H]([C@H](C(=O)Nc1cc(C(C)(CC(=O)O)C2CCC2)ccc1Cl)c1ccc(Cl)cc1)C(F)(F)F (single isomer, unassigned) [Example 6] | 1.1 | 0.056 | 0.001 | 
C[C@H]([C@H](C(=O)Nc1cc(C(CC(=O)O)C2(C)CC2)ccc1Cl)c1ccc(Cl)cc1)C(F)(F)F (single isomer, unassigned) [Example 26] |  |  | 0.01 | 
C[C@H]([C@H](C(=O)Nc1cc(C(CC(=O)O)CC2CC2)ccc1Cl)c1ccc(Cl)cc1)C(F)(F)F (single isomer, unassigned) [Example 35] | 1 | 0.011 | 0.0003 | 
C[C@H]([C@H](C(=O)Nc1cc(C(CC(=O)O)CC2CC2)ccc1Cl)c1ccc(Cl)cc1)C(F)(F)F (single isomer, unassigned) [Example 36] |  |  | 0.003 | 
CC(C)C(CC(=O)O)c1ccc(Cl)c(NC(=O)[C@H](c2ccc(Cl)cc2)[C@@H](C)C(F)(F)F)c1 (single isomer, unassigned; (+)) [Example 1] | 1 | 0.022 | 0.003 | 
CC(C)C(CC(=O)O)c1ccc(Cl)c(NC(=O)[C@H](c2ccc(Cl)cc2)[C@@H](C)C(F)(F)F)c1 (single isomer, unassigned; (+)) [Example 2] | 4 | 0.089 | 0.0065 | 
C[C@H]([C@H](C(=O)Nc1cc(C(CC(=O)O)C2CCC2)ccc1Cl)c1ccc(Cl)cc1)C(F)(F)F (single isomer, unassigned; (+)) [Example 33] | 0.4 | 0.011 | 0.001 | 
C[C@H]([C@H](C(=O)Nc1cc(C(CC(=O)O)C2CCC2)ccc1Cl)c1ccc(Cl)cc1)C(F)(F)F (single isomer, unassigned; (+)) [Example 34] |  |  | 0.01 | 
C[C@H]([C@H](C(=O)Nc1cc(C(C)(CC(=O)O)C2CC2)ccc1Cl)c1ccc(Cl)cc1)C(F)(F)F (stereo partly drawn) [Example 7] |  |  | 0.3 | 
CCc1ccc([C@@H](C(=O)Nc2cc(C(CC(=O)O)C(C)C)ccc2Cl)[C@@H](C)C(F)(F)F)cc1 (stereo partly drawn) [Example 8] |  |  | 0.001 | 
CC(C)C(CC(=O)O)c1ccc(Cl)c(NC(=O)[C@H](c2ccc(Cl)c(F)c2)[C@@H](C)C(F)(F)F)c1 (stereo partly drawn) [Example 9] |  |  | 0.001 | 
CC(C)c1ccc([C@@H](C(=O)Nc2cc(C(CC(=O)O)C(C)C)ccc2Cl)[C@@H](C)C(F)(F)F)cc1 (stereo partly drawn) [Example 10] | 0.5 | 0.01 | 0.0003 | 0.131
CC(C)C(CC(=O)O)c1ccc(Cl)c(NC(=O)[C@H](c2ccc(F)cc2)[C@@H](C)C(F)(F)F)c1 (stereo partly drawn) [Example 11] |  |  | 0.003 | 

Compound | MEC (minimum effective concentration), activating action at the sGC enzyme [1] [nM] | EC50 [1] [µM] | minimal effective concentration [2] [µM] | IC50 [3] [µM]
CC(C)C(CC(=O)O)c1ccc(Cl)c(NC(=O)C(c2ccc(CC(F)(F)F)cc2)C(C)C(F)(F)F)c1 (stereo not drawn) [Example 12] | 1.1 | 0.017 | 0.001 | 
CC(C)C(CC(=O)O)c1ccc(Cl)c(NC(=O)[C@H](c2ccc(C3CC3(F)F)cc2)[C@@H](C)C(F)(F)F)c1 (stereo partly drawn) [Example 13] | 0.5 | 0.014 | 0.0003 | 
CC(C)C(CC(=O)O)c1ccc(Cl)c(NC(=O)[C@H](c2ccc(C(C)(C)C)cc2)[C@@H](C)C(F)(F)F)c1 (stereo partly drawn) [Example 14] | 0.5 | 0.0084 | 0.0003 | 0.269
COc1cc([C@@H](C(=O)Nc2cc(C(CC(=O)O)C(C)C)ccc2Cl)[C@@H](C)C(F)(F)F)ccc1Cl (stereo partly drawn) [Example 15] |  |  | 0.003 | 
Cc1ccc([C@@H](C(=O)Nc2cc(C(CC(=O)O)C(C)C)ccc2Cl)[C@@H](C)C(F)(F)F)cc1 (stereo partly drawn) [Example 16] |  |  | 0.003 | 0.767
Cc1cc([C@@H](C(=O)Nc2cc(C(CC(=O)O)C(C)C)ccc2Cl)[C@@H](C)C(F)(F)F)ccc1Cl (stereo partly drawn) [Example 17] |  |  | 0.001 | 
CC(C)C(CC(=O)O)c1ccc(Cl)c(NC(=O)C(c2ccc(Cl)cc2)C2CCC(F)(F)C2)c1 (stereo not drawn) [Example 18] |  |  | 0.3 | 
CC(C)C(CC(=O)O)c1ccc(Cl)c(NC(=O)C(c2ccc(Cl)cc2)C2CCC(F)(F)C2)c1 (stereo not drawn) [Example 19] |  |  | 0.03 | 
CC(C)C(CC(=O)O)c1ccc(Cl)c(NC(=O)C(c2ccc(Cl)cc2)C2CCC(F)(F)C2)c1 (stereo not drawn) [Example 20] |  |  | 1 | 
CC(C)C(CC(=O)O)c1ccc(Cl)c(NC(=O)C(c2ccc(Cl)cc2)C2CCC(F)(F)C2)c1 (stereo not drawn) [Example 21] |  |  | 0.01 | 
C[C@H]([C@H](C(=O)Nc1cc(C(CC(=O)O)C2CC2)ccc1Cl)c1ccc(Cl)cc1)C(F)(F)F (stereo partly drawn) [Example 23] |  |  | 0.003 | 
COC(C)(C)C(CC(=O)O)c1ccc(Cl)c(NC(=O)[C@H](c2ccc(Cl)cc2)[C@@H](C)C(F)(F)F)c1 (stereo partly drawn) [Example 25] | 5.1 | 0.22 | 0.01 | 
C[C@H]([C@H](C(=O)Nc1cc(C(CC(=O)O)C2(F)CC2)ccc1Cl)c1ccc(Cl)cc1)C(F)(F)F (stereo partly drawn) [Example 27] | 1.7 | 0.068 | 0.003 | 
C[C@H]([C@H](C(=O)Nc1cc(C(CC(=O)O)C2CC(F)(F)C2)ccc1Cl)c1ccc(Cl)cc1)C(F)(F)F (stereo partly drawn) [Example 28] |  |  | 0.03 | 
CC(C(=O)O)C(c1ccc(Cl)c(NC(=O)C(c2ccc(Cl)cc2)[C@@H](C)C(F)(F)F)c1)C1CC1 (stereo partly drawn) [Example 30] | 1.7 | 0.64 | 0.01 | 
C[C@H](C(C(=O)Nc1cc(C(CC(=O)O)C2CC2(F)F)ccc1Cl)c1ccc(Cl)cc1)C(F)(F)F (stereo partly drawn) [Example 31, 3-(4-Chloro-3-{[(3R)-2-(4-chlorophenyl)-4,4,4-trifluoro-3-methylbutanoyl]amino}phenyl)-3-(2,2-difluorocyclopropyl)propanoic acid] |  |  | 0.003 | 
